Experimental data: ChEMBL document CHEMBL4196088, “Induction of cell killing and autophagy by amphiphilic pyrrolidine derivatives on human pancreatic cancer cells” (Eur J Med Chem, 2018)
Calls of active or inactive are those of the source. The rule behind the calls is not given here.

Experiments:
MIA PaCa-2 [1] = assay: Induction of apoptosis in human MIAPaCa2 cells assessed as live cells at 20 uM after 48 hrs by Annexin V-FITC/propidium iodide staining based flow cytometry (reference value: 86.79%); assay type: functional
BXPC-3 [2] = assay: Induction of apoptosis in human BxPC3 cells assessed as accumulation at sub-G0/G1 phase harboring pSFFV-Bcl-XL at 20 uM after 72 hrs by propidium iodide staining based flow cytometry (reference value: 1.3%); assay type: functional
[3] = Induction of apoptosis in HPNE cells assessed as accumulation at sub-G0/G1 phase at 10 uM after 24 hrs by propidium iodide staining based flow cytometry (reference value: 0.6%); assay type: cell-based; conditions: human
MIA PaCa-2 [4] = assay: Induction of apoptosis in human MIAPaCa2 cells assessed as necrotic cells at 20 uM after 48 hrs by Annexin V-FITC/propidium iodide staining based flow cytometry (reference value: 0.63%); assay type: functional
MIA PaCa-2 [5] = assay: Induction of apoptosis in human MIAPaCa2 cells assessed as necrotic cells at 20 uM after 24 hrs by Annexin V-FITC/propidium iodide staining based flow cytometry (reference value: 0.63%); assay type: functional
Fibroblast [6] = assay: Induction of apoptosis in human primary fibroblasts assessed as accumulation at sub-G0/G1 phase at 10 uM after 72 hrs by propidium iodide staining based flow cytometry (reference value: 6.7%); assay type: cell-based
MIA PaCa-2 [7] = assay: Induction of apoptosis in human MIAPaCa2 cells assessed as increase in cleaved PARP protein expression at 20 uM after 15 to 48 hrs by Western blot analysis; assay type: functional, cell-based
MIA PaCa-2 [8] = assay: Induction of apoptosis in human MIAPaCa2 cells assessed as live cells at 20 uM after 24 hrs by Annexin V-FITC/propidium iodide staining based flow cytometry (reference value: 86.79%); assay type: functional
BXPC-3 [9] = assay: Induction of apoptosis in human BxPC3 cells assessed as accumulation at sub-G0/G1 phase at 10 uM after 24 hrs by propidium iodide staining based flow cytometry (reference value: 1.8%); assay type: functional
BXPC-3 [10] = assay: Induction of apoptosis in human BxPC3 cells harboring pSFFV-Bcl-XL assessed as accumulation at sub-G0/G1 phase at 10 uM after 24 hrs by propidium iodide staining based flow cytometry (reference value: 1.5%); assay type: functional
BXPC-3 [11] = assay: Induction of apoptosis in human BxPC3 cells harboring pSFFV-Bcl-XL assessed as accumulation at sub-G0/G1 phase at 10 uM after 72 hrs by propidium iodide staining based flow cytometry (reference value: 2%); assay type: functional
PK9 [12] = assay: Induction of apoptosis in human PK9 cells assessed as accumulation at sub-G0/G1 phase at 10 uM after 48 hrs by propidium iodide staining based flow cytometry (reference value: 3.8%); assay type: functional
[13] = Induction of apoptosis in HPNE cells assessed as accumulation at sub-G0/G1 phase at 10 uM after 48 hrs by propidium iodide staining based flow cytometry (reference value: 0.7%); assay type: cell-based; conditions: human
MIA PaCa-2 [14] = assay: Induction of apoptosis in human MIAPaCa2 cells assessed as late apoptotic cells at 20 uM after 48 hrs by Annexin V-FITC/propidium iodide staining based flow cytometry (reference value: 7.4%); assay type: functional
Fibroblast [15] = assay: Induction of apoptosis in human primary fibroblasts at 20 uM after 72 hrs by propidium iodide staining based flow cytometry (reference value: 6.7%); assay type: cell-based
PK9 [16] = assay: Induction of apoptosis in human PK9 cells assessed as accumulation at sub-G0/G1 phase at 20 uM after 24 hrs by propidium iodide staining based flow cytometry (reference value: 2.2%); assay type: functional
Fibroblast [17] = assay: Induction of apoptosis in human primary fibroblasts at 20 uM after 48 hrs by propidium iodide staining based flow cytometry (reference value: 6.1%); assay type: cell-based
MIA PaCa-2 [18] = assay: Induction of apoptosis in human MIAPaCa2 cells assessed as early apoptotic cells at 20 uM after 24 hrs by Annexin V-FITC/propidium iodide staining based flow cytometry (reference value: 5.16%); assay type: functional
BXPC-3 [19] = assay: Induction of apoptosis in human BxPC3 cells assessed as accumulation at sub-G0/G1 phase harboring pSFFV-Bcl-XL at 20 uM after 24 hrs by propidium iodide staining based flow cytometry (reference value: 1.2%); assay type: functional
BXPC-3 [20] = assay: Induction of apoptosis in human BxPC3 cells assessed as accumulation at sub-G0/G1 phase at 20 uM after 48 hrs in presence of autophagy inhibitor chloroquine by propidium iodide staining based flow cytometry; assay type: functional, cell-based
Fibroblast [21] = assay: Induction of apoptosis in human primary fibroblasts at 20 uM after 24 hrs by propidium iodide staining based flow cytometry (reference value: 4.8%); assay type: cell-based
[22] = Induction of apoptosis in HPNE cells assessed as accumulation at sub-G0/G1 phase at 20 uM after 48 hrs by propidium iodide staining based flow cytometry (reference value: 0.7%); assay type: cell-based; conditions: human
BXPC-3 [23] = assay: Induction of apoptosis in human BxPC3 cells assessed as accumulation at sub-G0/G1 phase at 20 uM after 48 hrs in presence of autophagy inhibitor bafilomycin A1 by propidium iodide staining based flow cytometry; assay type: functional, cell-based
BXPC-3 [24] = assay: Induction of apoptosis in human BxPC3 cells assessed as accumulation at sub-G0/G1 phase at 20 uM after 24 to 48 hrs in presence of caspase inhibitor zVAD-fmk by propidium iodide staining based flow cytometry; assay type: functional, cell-based
BXPC-3 [25] = assay: Induction of apoptosis in human BxPC3 cells assessed as accumulation at sub-G0/G1 phase at 10 uM after 48 hrs by propidium iodide staining based flow cytometry (reference value: 2.8%); assay type: functional
BXPC-3 [26] = assay: Induction of apoptosis in human BxPC3 cells harboring pSFFV-Bcl-XL assessed as accumulation at sub-G0/G1 phase at 10 uM after 48 hrs by propidium iodide staining based flow cytometry (reference value: 1.9%); assay type: functional
BXPC-3 [27] = assay: Induction of apoptosis in human BxPC3 cells assessed as accumulation at sub-G0/G1 phase at 20 uM after 48 hrs by propidium iodide staining based flow cytometry (reference value: 2.8%); assay type: functional
Fibroblast [28] = assay: Induction of apoptosis in human primary fibroblasts assessed as accumulation at sub-G0/G1 phase at 10 uM after 24 hrs by propidium iodide staining based flow cytometry (reference value: 4.8%); assay type: cell-based
BXPC-3 [29] = assay: Induction of apoptosis in human BxPC3 cells assessed as increase in cleaved PARP protein expression at 20 uM after 15 to 48 hrs by Western blot analysis; assay type: functional, cell-based
MIA PaCa-2 [30] = assay: Induction of apoptosis in human MIAPaCa2 cells assessed as early apoptotic cells at 20 uM after 48 hrs by Annexin V-FITC/propidium iodide staining based flow cytometry (reference value: 5.16%); assay type: functional
PK9 [31] = assay: Induction of apoptosis in human PK9 cells assessed as accumulation at sub-G0/G1 phase at 20 uM after 48 hrs by propidium iodide staining based flow cytometry (reference value: 3.8%); assay type: functional
[32] = Induction of apoptosis in HPNE cells assessed as accumulation at sub-G0/G1 phase at 20 uM after 24 hrs by propidium iodide staining based flow cytometry (reference value: 0.6%); assay type: cell-based; conditions: human
PK9 [33] = assay: Induction of apoptosis in human PK9 cells assessed as accumulation at sub-G0/G1 phase at 10 uM after 24 hrs by propidium iodide staining based flow cytometry (reference value: 2.2%); assay type: functional
PK9 [34] = assay: Induction of apoptosis in human PK9 cells assessed as accumulation at sub-G0/G1 phase at 20 uM after 72 hrs by propidium iodide staining based flow cytometry (reference value: 4%); assay type: functional

| SMILES | Activity (MIA PaCa-2 [1]) [%] | Activity (BXPC-3 [2]) [%] | Activity [3] [%] | Activity (MIA PaCa-2 [4]) [%] | Activity (MIA PaCa-2 [5]) [%] | Activity (Fibroblast [6]) [%] | Activity (MIA PaCa-2 [7]) | Activity (MIA PaCa-2 [8]) [%] | Activity (BXPC-3 [9]) [%] | Activity (BXPC-3 [10]) [%] | Activity (BXPC-3 [11]) [%] | Activity (PK9 [12]) [%] | Activity [13] [%] | Activity (MIA PaCa-2 [14]) [%] | Activity (Fibroblast [15]) [%] | Activity (PK9 [16]) [%] | Activity (Fibroblast [17]) [%] | Activity (MIA PaCa-2 [18]) [%] | Activity (BXPC-3 [19]) [%] | Activity (BXPC-3 [20]) | also measured |
| --- | --- | --- | --- | --- | --- | --- | --- | --- | --- | --- | --- | --- | --- | --- | --- | --- | --- | --- | --- | --- | --- |
| CCCCCCCCCCCCCCCCCCOCC(COP(=O)([O-])OCC[N+](C)(C)C)OC (stereo not drawn) [EDELFOSINE] | 2.49 | 2.8 | 1.9 | 1.79 | 7.47 | 8.7 | Active | 11.51 | 14.2 | 1.8 | 2.6 | 8 | 3.5 | 45.92 | 9.8 | 4.8 | 8.6 | 28.49 | 3 | Active | Activity (Fibroblast [21]): 7.3%; Activity [22]: 7.3%; Activity (BXPC-3 [23]): Active; Activity (BXPC-3 [24]): inactive; Activity (BXPC-3 [25]): 16.5%; Activity (BXPC-3 [26]): 3.7%; Activity (BXPC-3 [27]): 28.9%; Activity (Fibroblast [28]): 5.2%; Activity (BXPC-3 [29]): Active; Activity (MIA PaCa-2 [30]): 49.78%; Activity (PK9 [31]): 11.2%; Activity [32]: 2.8%; Activity (PK9 [33]): 3.8%; Activity (PK9 [34]): 15.6% |
| CCCCCC/C=C\CCCCCCCCOC[C@H]1NC[C@H](O)[C@@H]1O | 4.4 | 8.6 | 23.9 | 3.44 | 0.71 | 9.5 | Active | 76.71 | 9.6 | 2 | 4.1 | 6.1 | 30.8 | 44.69 | 18.7 | 10.1 | 13.9 | 11.88 | 2.8 | Active | Activity (Fibroblast [21]): 9.2%; Activity [22]: 75.7%; Activity (BXPC-3 [23]): Active; Activity (BXPC-3 [24]): inactive; Activity (BXPC-3 [25]): 12.8%; Activity (BXPC-3 [26]): 3.7%; Activity (BXPC-3 [27]): 33.7%; Activity (Fibroblast [28]): 7.9%; Activity (BXPC-3 [29]): Active; Activity (MIA PaCa-2 [30]): 47.46%; Activity (PK9 [31]): 20%; Activity [32]: 70.6%; Activity (PK9 [33]): 3.8%; Activity (PK9 [34]): 28.6% |
